Marks after values point to notes of the source that are not given here. Where a SMILES comes first, the peptide text is derived from it. Where no end group is shown, it is not given here. [ ]: non-standard residue; d: D form. Phe(ol) = N[C@H](CO)Cc1ccccc1; Dab = NCC[C@H](N)C(=O)O; Dap = NC[C@H](N)C(=O)O; Aib = CC(C)(N)C(=O)O
Columns and labels:
F. nucleatum ATCC 25586 = assay: MDC, flow cytometry Syto9/PI membrane disruption assay; assay type: cell-based, Fusobacterium nucleatum; details: for MDC: F. nucleatum ATCC 25586, 90 min peptide/bacteria incubation, Syto9/PI flow cytometry, extrapolated to 100% PI+ cells, average of 3 assays ± SD; for Antimicrobial activity (MDC50): against F. nucleatum, maximum peptide concentration = 1000 µM
Description: We reasoned that as AMPs disrupt the cytoplasmic membrane we should be able to monitor this disruption using membrane permeable/impermeable fluorescent intercalating DNA dyes that are used to determine the viability of a microbial culture. We initially synthesised melittin (peptide sequence shown in S1 Table) a well characterised, broad-spectrum and potent AMP to investigate whether viability dyes, Syto9 (membrane permeable) and propidium iodide (PI, membrane impermeable), could be used to determine AMP activity, against the melittin-susceptible bacterium Fusobacterium nucleatum. […] Staining cells with 0.1% v/v Syto 9 in 0.9% […] (3.34mM stock solution) and 0.1% v/v PI in saline (50μg/mL stock solution) provided optimal concentrations that gave consistent and distinct cell populations; a membrane intact (Syto9+/PI-) and two membrane disrupted populations (Syto9+/PI+ and Syto9-/PI+; S1 Fig). […] Following from this we then incubated F. nucleatum with variant melittin concentrations and determined the proportion of membrane intact (Syto9+/PI-) and membrane disrupted (PI+ i.e. Syto9+/PI+ and Syto9-/PI+) populations. […] Linear regression of the PI+ values for the peptide concentrations prior to full membrane disruption (% PI+ cells ≤ 99% and ≥ 1–5%) gave an R^2 value of >0.9 and from extrapolation the minimum peptide concentration that induced 100% membrane disruption (MDC) could be determined (Fig 1c, insert). […] Melittin and magainin II are known to have high and low activities against the Gram positive bacterium Streptococcus mutans, respectively. […] Although the standard procedure is a 90 minute incubation of bacteria and AMP, we investigated whether the incubation time could be shortened.
For determination of MDC a 50 μL aliquot of the bacteria/AMP was mixed with 100 μL of 0.9% w/v saline containing 0.1% v/v of SYTO® 9 (3.34mM stock solution) and 0.1% v/v of PI (50μg/mL stock solution) and incubated for 10 minutes at room temperature in the dark. Following incubation the bacterial cell samples were analysed using a Cell Lab Quanta SC MPL flow cytometer (Beckman Coulter) equipped with a 100 W stabilized mercury arc lamp with wavelengths of 365, 404, and 435 nm, and a 488 nm diode laser. The fluorescence from SYTO® 9 was measured through a 525-nm band-pass filter (Fluorescent Channel 1, FL-1), and the red emission of PI was measured with a 670-nm long pass filter (Fluorescent Channel 3, FL-3). A minimum of 100,000 bacterial events were collected and the multi-parametric data analyzed using the Cell Lab Quanta SC software. NB for flow cytometers not fitted with an electrical volume detector for cell counting, the addition of microbeads to the samples can be used to determine cell numbers. MDC was calculated by plotting the percent PI+ cells for the each peptide concentration and fitting a linear curve to the data that is ≤ 99% PI+ cells and ≥ 1–5% PI+ cells (minimum of 4 data points). Inclusion of data points outside of these PI+ cell percentages will result in a positive or negative skewing of the MDC value. By solving the line equation (y = mx + C) for x (peptide concentration) when y = 1 (where 1 = 100% of PI+ cells) the MDC (x) can be determined i.e. MDC = x = (y − C)/m.

sheep red blood cells = assay: Hemolysis assay; assay type: cell-based; details: for Therapeutic Index (hemolysis): HC50/MDC50 (F. nucleatum), given as x : 1
Experimental: Fresh sheep red blood cells in Alsever’s solution (RBCs, Equicell, Victoria, Australia) were diluted 1 in 20 in PBS (pH 7.4), pelleted by centrifugation, and washed three times in PBS (1000 g, 10 min). The RBCs were counted using a cell counter (Coulter Particle Counter Z series, Beckman Coulter) and diluted to a final concentration of 2 × 10^7 cells/mL. […] Following incubation, the RBCs were pelleted centrifuged (1000 g, 10 min) and the amount of haemoglobin in 100 μL aliquots determined by measuring the absorbance at 405 nm using a microplate reader (PerkinElmer 1420 Multilabel Counter VICTOR3). Positive and negative controls for hemolysis were taken as RBC lysed with 0.5% Triton X-100 (1:1 v/v) and RBC suspension in PBS, respectively. The percentage of hemolysis was calculated using the following formula: % Hemolysis = [(A405 test sample—A405 negative control) / (A405 positive control—A405 negative control)] × 100
The percentage hemolysis was plotted against peptide concentration and linear regression analysis was used to determine the hemolytic concentration needed to lyse 50% (HC50) of RBCs.

[1] = sheep RBCs 2 × 10^7 cells/mL in PBS pH 7.4, 2 h at 37°C, 5% CO2, A405, linear regression, maximum peptide concentration = 1000 µM

| Molecule | MDC (F. nucleatum ATCC 25586) | Therapeutic Index (hemolysis) (sheep red blood cells) | Hemolysis (HC50) (sheep red blood cells; pH 7.4) [µM] | Antimicrobial activity (MDC50) (F. nucleatum ATCC 25586) [µM] | Hemolysis (HC50) (sheep red blood cells; [1]) [µM] |
| --- | --- | --- | --- | --- | --- |
| CC(=O)NC(C)(C)C(=O)N1CCC[C@H]1C(=O)NC(C)(C)C(=O)N[C@@H](C)C(=O)NC(C)(C)C(=O)N[C@@H](C)C(=O)N[C@@H](CCC(N)=O)C(=O)NC(C)(C)C(=O)N[C@H](C(=O)NC(C)(C)C(=O)NCC(=O)N[C@@H](CC(C)C)C(=O)NC(C)(C)C(=O)N1CCC[C@H]1C(=O)N[C@H](C(=O)NC(C)(C)C(=O)NC(C)(C)C(=O)N[C@@H](CCC(=O)O)C(=O)N[C@@H](CCC(N)=O)C(=O)N[C@H](CO)Cc1ccccc1)C(C)C)C(C)C [Alamethicin] (Ac-[Aib]P[Aib]A[Aib]AQ[Aib]V[Aib]GL[Aib]PV[Aib][Aib]EQ[Phe(ol)]; N-terminus assumed) | 21.1 ± 4.1 µM |  |  |  |  |
| CC[C@H](C)[C@H](NC(=O)CN)C(=O)NCC(=O)N[C@@H](CCN)C(=O)N[C@@H](Cc1ccccc1)C(=O)N[C@@H](CC(C)C)C(=O)N[C@@H](Cc1c[nH]cn1)C(=O)N[C@@H](CO)C(=O)N[C@@H](C)C(=O)N[C@@H](CCN)C(=O)N[C@@H](CCN)C(=O)N[C@@H](Cc1ccccc1)C(=O)NCC(=O)N[C@@H](CCN)C(=O)N[C@@H](C)C(=O)N[C@@H](Cc1ccccc1)C(=O)N[C@H](C(=O)NCC(=O)N[C@@H](CCC(=O)O)C(=O)N[C@H](C(=O)N[C@@H](CCSC)C(=O)N[C@@H](CC(N)=O)C(=O)N[C@@H](CO)C(N)=O)[C@@H](C)CC)C(C)C [Magainin-Dab] (H-GIG[Dab]FLHSA[Dab][Dab]FG[Dab]AFVGEIMNS-NH2; N-terminus assumed) | 11.0 ± 1.0 µM | >182 : 1 | >1000 | 5.5 ± 0.5 |  |
| CC[C@H](C)[C@H](NC(=O)CN)C(=O)NCC(=O)N[C@@H](CN)C(=O)N[C@@H](Cc1ccccc1)C(=O)N[C@@H](CC(C)C)C(=O)N[C@@H](Cc1c[nH]cn1)C(=O)N[C@@H](CO)C(=O)N[C@@H](C)C(=O)N[C@@H](CN)C(=O)N[C@@H](CN)C(=O)N[C@@H](Cc1ccccc1)C(=O)NCC(=O)N[C@@H](CN)C(=O)N[C@@H](C)C(=O)N[C@@H](Cc1ccccc1)C(=O)N[C@H](C(=O)NCC(=O)N[C@@H](CCC(=O)O)C(=O)N[C@H](C(=O)N[C@@H](CCSC)C(=O)N[C@@H](CC(N)=O)C(=O)N[C@@H](CO)C(N)=O)[C@@H](C)CC)C(C)C [Magainin-Dap] (H-GIG[Dap]FLHSA[Dap][Dap]FG[Dap]AFVGEIMNS-NH2; N-terminus assumed) | 29.8±6.9^c μM | >67 : 1 | >1000 | 14.9 ± 3.5 |  |
| GIGKFLHSAKKFGKAFVGEIMNS-NH2 [Magainin II] |  |  |  |  | 479.5 ± 42.9 |
| GIGRFLHSARRFGRAFVGEIMNS-NH2 [Magainin-Arg] | 4.9±0.2^c μM | 100.8 : 1 | 251.9 ± 48.2 | 2.5 ± 0.1 |  |
| GIGXFLHSAXXFGXAFVGEIMNS-CONH2 [Magainin-Orn, magainin II analogue, all lysine residues substituted with ornithine] | 11.4 ± 0.3 µM | 126.5 : 1 |  | 5.7 ± 0.2 | 721.1 ± 65.3 |
